The subject of this data set is athymic nude mice doubly xenografted with PC3 cells and 22Rv1 cells. Nature of the data set: Quantitative PET imaging in doubly xenografted mice. The class given is in vivo. To be noted: PET VOI analysis, 50-70 min p.i., retro-orbital injection.

With `O=C([O-])CN(CCN(CC(=O)[O-])Cc1cc(CCC(=O)NCCCCCC(=O)NCCCC[C@H](NC(=O)N[C@@H](CCC(=O)O)C(=O)O)C(=O)O)ccc1[O-])Cc1cc(CCC(=O)O)ccc1[O-].[68Ga+3].[OH3+]` [[^68Ga]Ga-PSMA11, HO-Glu-CO-Lys(HBED-CC-Ahx)-OH], the “uptake in 22Rv1 tumor” value was 3.22 % ID/g.

Source of the values: article PMC10184157 (ACS Medicinal Chemistry Letters, 2023).
